Experimental findings from patent US11618749B2, “Compounds and compositions for treating conditions associated with STING activity” (IFM Due, Inc., priority 2018, dated 2023) are described below.

T1 sequence (Q86WV6 whole entry R71H/G230A/H232R/R293Q): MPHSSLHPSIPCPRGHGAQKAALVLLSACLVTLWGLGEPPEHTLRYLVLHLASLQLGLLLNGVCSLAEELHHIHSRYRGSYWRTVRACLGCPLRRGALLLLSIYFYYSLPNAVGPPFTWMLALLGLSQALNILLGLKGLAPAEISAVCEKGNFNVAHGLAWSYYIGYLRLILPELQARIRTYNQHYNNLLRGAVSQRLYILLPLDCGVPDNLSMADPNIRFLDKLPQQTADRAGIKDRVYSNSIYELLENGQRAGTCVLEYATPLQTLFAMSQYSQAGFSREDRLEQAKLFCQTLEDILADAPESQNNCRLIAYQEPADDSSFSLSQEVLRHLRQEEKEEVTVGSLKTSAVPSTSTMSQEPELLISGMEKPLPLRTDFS

This assay has as its target T1, hSTING (Homo sapiens, UniProt Q86WV6, G230A/H232R/R293Q/R71H).
T1 construct: host or cells: THP1-Dual KO-IFNAR2 cells
The experiment in a line: STING reporter assay (luciferase reporter) in THP1-Dual KO-IFNAR2 cells activated with 2′3′cGAMP. The assay is classed as cell-based. The following applies: 15 μM 2′3′cGAMP, 24 h, luciferase reporter activity. How it is done: STING pathway activation by the compounds described herein is measured using THP1-Dual™ cells (KO-IFNAR2).
THP1-Dual™ KO-IFNAR2 Cells (obtained from invivogen) are maintained in RPMI, 10% FCS, 5 ml P/S, 2 mM L-glut, 10 mM Hepes, and 1 mM sodium pyruvate. Compounds are spotted in empty 384 well tissue culture plates (Greiner 781182) by Echo for a final concentration of […]. Cells are plated into the TC plates at 40 μL per well, 2×10E6 cells/mL. For activation with STING ligand, 2′3′cGAMP (MW 718.38, obtained from Invivogen), is prepared in Optimem media.
The following solutions are prepared for each 1×384 plate: • Solution A: 2 mL Optimem with one of the following stimuli: • 60 uL of 10 mM 2′3′cGAMP→150 μM stock • Solution B: 2 mL Optimem with 60 μL Lipofectamine 2000→Incubate 5 min at RT
2 mL of solution A and 2 ml Solution B is mixed and incubated for 20 min at room temperature (RT). 20 uL of transfection solution (A+B) is added on top of the plated cells, with a final 2′3′cGAMP concentration of 15 μM. The plates are then centrifuged immediately at 340 g for 1 minute, after which they are incubated at 37° C., 5% CO2, >98% humidity for 24 h. Luciferase reporter activity is then measured. EC50 values were calculated by using standard methods known in the art.
Luciferase Reporter Assay:
10 μL of supernatant from the assay is transferred to white 384-plate with flat bottom and squared wells. one pouch of QUANTI-Luc™ Plus is dissolved in 25 mL of water. 100 μL of QLC Stabilizer per 25 mL of QUANTI-Luc™ Plus solution was added. 50 μL of QUANTI-Luc™ Plus/QLC solution per well is then added. Luminescence is measured on a Platereader (e.g., Spectramax I3X (Molecular Devices GF3637001)).
Luciferase reporter activity is then measured. EC50 values are calculated by using standard methods known in the art.
(In a reporter assay the amount or activity of a reporter protein is the signal.)
With `C#Cc1cnc2[nH]cc(NC(=O)Nc3ccc(C(F)(F)F)cc3)c2c1` [Compound 258, 1-(5-ethynyl-1H-pyrrolo[2,3-b]pyridin-3-yl)-3-(4-(trifluoromethyl)phenyl)urea], the EC50 (as a rule, the midpoint of the concentration-response curve) fell in the range of 0.2 to 1 µM.

`CN1CC=C(c2ccnc3[nH]cc(NC(=O)Nc4ccc(C(F)(F)F)cc4)c23)CC1` [Compound 195] yielded a half-maximal effective concentration (EC50) of 5 to 100 µM.

In the case of `O=C(Nc1ccc(C2CCCCC2)nc1)Nc1c[nH]c2ccncc12` [Compound 315], the 50% effective concentration (EC50) is 1 to 5 µM.

`O=C(Nc1ccc(C2CCCCC2)cn1)Nc1c[nH]c2cnccc12` [Compound 313] returned a half-maximal effective concentration (EC50) of 1 to 5 µM.

`O=C(Nc1c[nH]c2cnccc12)NC1CCC(c2ccccc2)CC1` (stereo not shown) [Compound 137] displayed a 50% effective concentration (EC50) of 1 to 5 µM.

In turn, `O=S(=O)(Nc1ccc(C(F)(F)F)cc1)Nc1c[nH]c2ncc(F)cc12` [Compound 337] gave a concentration for a half-maximal effect (EC50) of 5 to 100 µM.

In turn, `CCc1ccc(CNC(=O)Nc2c[nH]c3ncccc23)cc1` [Compound 171] registered a half-maximal effective concentration (EC50) of 5 to 100 µM.

As to `N#Cc1cnc2[nH]cc(NC(=O)Nc3ccc(C(F)(F)F)cc3)c2c1` [Compound 151], the EC50 was in the range of 0.2 to 1 µM.

As for `O=C(Nc1c[nH]c2cccnc12)NC1CCC(c2ccccc2)CC1` (stereo not shown) [Compound 325], the EC50 was in the range of 5 to 100 µM.

For the molecule `O=C(Nc1ccc(C(F)(F)F)cc1)Nc1c[nH]c2ncc(Cl)cc12` [Compound 283], the EC50 is 0.04 to 0.2 µM.

As for `O=C(Nc1ccc(C(F)(F)F)cn1)Nc1c[nH]c2ccncc12` [Compound 319], the EC50 lay in the range of 1 to 5 µM.

In turn, `O=C(Nc1cccc(C(F)(F)F)c1)Nc1c[nH]c2cccnc12` [Compound 332] yielded a concentration giving a half-maximal response (EC50) of 1 to 5 µM.

As to `O=C(Nc1c[nH]c2ncc(F)cc12)NC1CCC2(CC1)CC2` [Compound 305], the EC50 fell in the range of 1 to 5 µM.

`O=C(Nc1ccc(C(F)(F)F)cc1)Nc1c[nH]c2ncc(C3CCCCC3)cc12` [Compound 267, 3-[5-cyclohexyl-1H-pyrrolo[2,3-b]pyridin-3-yl]-1-[4-(trifluoromethyl)phenyl] urea]: the EC50 fell in the range of 1 to 5 µM.

The molecule `CN1CCN(c2ccc(-c3cnc4[nH]cc(NC(=O)Nc5ccc(C(F)(F)F)cc5)c4c3)cc2)CC1` [Compound 197] came in with an EC50 of 1 to 5 µM.

On to `O=C(Nc1ccc(C2CCCCC2)nc1)Nc1c[nH]c2cnccc12` [Compound 312], for which the concentration for a half-maximal effect (EC50) was in the range of 1 to 5 µM.

On to `CCCCC1CCC(NC(=O)Nc2c[nH]c3ncccc23)CC1` (stereo not shown) [Compound 170], for which the concentration for a half-maximal effect (EC50) lay in the range of 0.2 to 1 µM.

In the case of `O=C(Nc1ccc(C(F)(F)F)c(Cl)c1)Nc1c[nH]c2ncc(F)cc12` [Compound 282], the half-maximal effective concentration (EC50) lay in the range of 0.2 to 1 µM.

For `O=C(Nc1ccc2c(c1)CCCC2)Nc1c[nH]c2ncc(F)cc12` [Compound 296], the 50% effective concentration (EC50) fell in the range of 0.04 to 0.2 µM.

`O=C(Nc1ccc(C(F)(F)F)cc1)Nc1c[nH]c2cccnc12` [Compound 146] came in with a 50% effective concentration (EC50) of 1 to 5 µM.

In the case of `O=C(Nc1ccc(C(F)(F)F)cc1)Nc1c[nH]c2ncc(-c3cccnc3)cc12` [Compound 210], the EC50 was in the range of 1 to 5 µM.

Consider `O=C(Nc1c[nH]c2ncc(F)cc12)NC1CCN(CC(F)(F)F)CC1` [Compound 252], for which the EC50 was 5 to 100 µM.

For `O=C(Nc1cccc(C(F)(F)F)c1)Nc1c[nH]c2cnccc12` [Compound 149], the 50% effective concentration (EC50) lay within 5 to 100 µM.

Consider `O=C(Nc1c[nH]c2ncccc12)N1CCc2ccccc2C1` [Compound 306], for which the concentration giving a half-maximal response (EC50) lay within 5 to 100 µM.

Turning to `O=C(Nc1c[nH]c2ncccc12)NC1Cc2ccccc2C1` [Compound 302], the EC50 fell in the range of 5 to 100 µM.

The molecule `O=C(Nc1cccc2c1CCCC2)Nc1c[nH]c2ncc(F)cc12` [Compound 284] gave an EC50 of 1 to 5 µM.

`O=C(Nc1cc(F)cc(F)c1)Nc1c[nH]c2ncc(F)cc12` [Compound 298] had an EC50 of 1 to 5 µM.

With `O=C(Nc1ccc(C(F)(F)F)nc1)Nc1c[nH]c2ncccc12` [Compound 257], the EC50 is 5 to 100 µM.

`O=C(Nc1ccc(C(F)(F)F)cn1)Nc1c[nH]c2ncccc12` [Compound 265] showed an EC50 of 0.2 to 1 µM.

Take `O=C(Nc1c[nH]c2ncccc12)N1CCCC(c2ccccc2)C1` (stereo not shown) [Compound 307]: the 50% effective concentration (EC50) was 5 to 100 µM.

As for `O=C(Nc1c[nH]c2ncc(F)cc12)NC1CCC2(CCC2)CC1` [Compound 247], the concentration for a half-maximal effect (EC50) lay within 1 to 5 µM.

`O=C(Nc1cccc(C(F)(F)F)c1)Nc1c[nH]c2ccncc12` [Compound 148] displayed a concentration giving a half-maximal response (EC50) of 1 to 5 µM.

Molecule `CCCCC1CCCN(C(=O)Nc2c[nH]c3ncccc23)C1` (stereo not shown) [Compound 167] registered an EC50 of 5 to 100 µM.

The molecule `O=C(Nc1ccc(C(F)(F)F)cc1)Nc1c[nH]c2cncc(F)c12` [Compound 164] showed a 50% effective concentration (EC50) of 5 to 100 µM.
